Measurements: US10899737B2, “Piperazine carbamates and methods of making and using same” (Lundbeck La Jolla Research Center, Inc., priority 2016, dated 2021)

Assays:
[1] = biological target: T1, MAGL (Homo sapiens, UniProt Q99685); experiment: In vitro competitive activity-based protein profiling (human), MAGL; type: biochemical
T1 construct: Proteomes (human prefrontal cortex or cell membrane fractions); from tissue
T1 sequence (Q99685 1-303): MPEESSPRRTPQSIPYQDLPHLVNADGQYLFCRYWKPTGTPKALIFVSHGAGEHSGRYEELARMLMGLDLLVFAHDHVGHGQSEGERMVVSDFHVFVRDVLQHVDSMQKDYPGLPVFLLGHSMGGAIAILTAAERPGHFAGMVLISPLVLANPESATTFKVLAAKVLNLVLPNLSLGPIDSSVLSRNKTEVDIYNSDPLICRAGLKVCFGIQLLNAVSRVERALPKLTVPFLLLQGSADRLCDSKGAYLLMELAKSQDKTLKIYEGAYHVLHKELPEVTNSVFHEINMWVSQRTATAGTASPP
In short: (§1)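 Human prefrontal cortex or cell membrane proteomes (1.0-2.0 mg/mL protein) preincubated 30 min at 37° C with inhibitor, then labeled 30 min RT with FP-Rh or JW912 probe. After SDS-PAGE, activity taken from fluorescent band intensity for each enzyme.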

[2] = biological target: T2, ABHD6 (Homo sapiens, UniProt Q9BV23); experiment: In vitro competitive activity-based protein profiling (human), ABHD6; type: biochemical; settings: human PC3
T2 construct: Proteomes (human prefrontal cortex or cell membrane fractions); endogenous in cells; human prefrontal cortex
T2 sequence (Q9BV23 1-337): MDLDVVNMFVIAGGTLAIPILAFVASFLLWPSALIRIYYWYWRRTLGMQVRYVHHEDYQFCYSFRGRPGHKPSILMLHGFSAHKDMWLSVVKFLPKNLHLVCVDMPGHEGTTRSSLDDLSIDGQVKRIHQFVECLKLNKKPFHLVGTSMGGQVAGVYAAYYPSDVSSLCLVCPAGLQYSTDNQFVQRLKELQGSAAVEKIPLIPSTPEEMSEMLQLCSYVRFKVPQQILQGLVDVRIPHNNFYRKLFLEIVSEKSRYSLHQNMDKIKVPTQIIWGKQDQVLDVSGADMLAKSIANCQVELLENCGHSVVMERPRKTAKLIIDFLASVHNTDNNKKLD
In short: as §1

[3] = biological target: T3, MAGL (Mus musculus, UniProt O35678); experiment: In vitro competitive activity-based protein profiling (mouse), MAGL; type: biochemical; settings: 1 μM inhibitor, mouse brain membrane fraction or cell lysates; read-out: MAGL % inh. 1 μM (mouse)
T3 construct: Proteomes (mouse brain membrane fraction or cell lysates); from tissue; host or cells: mouse brain membrane fraction or cell lysates
T3 sequence (O35678 1-303): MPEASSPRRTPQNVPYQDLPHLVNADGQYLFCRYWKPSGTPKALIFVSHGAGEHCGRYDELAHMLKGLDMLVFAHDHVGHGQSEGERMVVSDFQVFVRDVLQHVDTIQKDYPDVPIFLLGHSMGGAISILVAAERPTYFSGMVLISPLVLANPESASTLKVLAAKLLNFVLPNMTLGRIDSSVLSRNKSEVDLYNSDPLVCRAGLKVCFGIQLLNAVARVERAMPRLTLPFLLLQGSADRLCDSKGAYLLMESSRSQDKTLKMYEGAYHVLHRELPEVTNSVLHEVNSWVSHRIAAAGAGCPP
In short: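 Mouse brain membrane fraction or cell lysate proteomes (50 μL, 1.0 mg/mL total protein) were preincubated with inhibitors at varying concentrations for 30 min at 37° C. FP-Rh (1.0 μL, 50 μM in DMSO) was then added for a further 30 min at 37° C. Samples were quenched with 4× SDS loading buffer and resolved by SDS-PAGE. MAGL activity was quantified from fluorescent gel band intensity using ImageJ 1.49 k.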

[4] = biological target: T4, ABHD6 (Mus musculus, UniProt Q8R2Y0); experiment: In vitro competitive activity-based protein profiling (mouse), ABHD6; type: biochemical; settings: 1 μM inhibitor, mouse brain membrane fraction or cell lysates; read-out: ABHD6 % inh. 1 μM (mouse)
T4 construct: Proteomes (mouse brain membrane fraction or cell lysates); from tissue; host or cells: mouse brain membrane fraction or cell lysates
T4 sequence (Q8R2Y0 1-336): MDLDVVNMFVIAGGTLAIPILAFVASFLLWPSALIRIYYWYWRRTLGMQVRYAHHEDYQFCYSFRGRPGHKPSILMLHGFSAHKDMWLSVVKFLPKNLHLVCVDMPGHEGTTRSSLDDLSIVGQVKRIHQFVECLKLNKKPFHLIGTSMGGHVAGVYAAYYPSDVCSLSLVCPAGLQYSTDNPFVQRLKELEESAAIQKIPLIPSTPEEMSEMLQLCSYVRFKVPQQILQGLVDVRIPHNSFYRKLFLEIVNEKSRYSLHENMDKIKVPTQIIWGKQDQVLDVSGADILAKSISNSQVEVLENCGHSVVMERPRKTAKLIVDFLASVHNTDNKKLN
In short: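 Mouse brain membrane proteome or cell lysate (1.0 mg/mL protein) preincubated 30 min at 37 °C with inhibitor, then labelled 30 min at 37 °C with FP-rhodamine probe. Remaining MAGL and ABHD6 activity quantified by in-gel fluorescence band intensity after SDS-PAGE; values are % inhibition at 1 μM.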

[5] = biological target: T3, MAGL; experiment: Mouse brain proteomes from inhibitor treated mice, MAGL inhibition; type: in vivo; settings: 5 mg/kg oral gavage, C57Bl/6J mouse brain, 4 h following administration; read-out: MAGL % inh. 5 mg/kg (mouse)
Procedure: Preparation of Mouse Brain Proteomes from Inhibitor Treated Mice.
Inhibitors were administered to wild-type C57Bl/6J by oral gavage in a vehicle of polyethylene glycol. Each animal was sacrificed 4 h following administration and brain proteomes were prepared and analyzed according to previously established methods (See Niphakis, M. J., et al. (2011) ACS Chem. Neurosci. and Long, J. Z., et al. Nat. Chem. Biol. 5:37-44).

inhibition at 1 µM ([1]; 1 μM inhibitor, human proteome, 30 min preincubation at 37° C, read-out: MAGL % inh. 1 μM (human)): ≥ 75%
IC50 ([1]; human PC3): ≤ 0.1 µM
IC50 [2]: 1 to 10 µM
inhibition at 1 µM [3]: ≥ 75%
inhibition at 1 µM [4]: 0 to 25%
inhibition at 5 mg/kg [5]: ≥ 75%
SMILES: O=C(OC(C(F)(F)F)C(F)(F)F)N1CCN(Cc2ccc(C(F)(F)F)cc2C2(C(=O)O)CCOCC2)CC1 [Example 45, 4-(2-((4-(((1,1,1,3,3,3-hexafluoropropan-2-yl)oxy)carbonyl)piperazin-1-yl)methyl)-5-(trifluoromethyl)phenyl)tetrahydro-2H-pyran-4-carboxylic acid]
